Values of other authors as cited in patent publication US11351152B2, “Method and composition for treating seizure disorders” (India Globalization Capital, Inc., priority 2016, dated 2022).

Key:
epileptic patients = details: 200-300 mg of cannabidiol per day in combination with standard antiepileptic drugs, 12 epileptic patients
single patient = details: 900-1200 mg of cannabidiol a day for 10 months
patients = details: 200-300 mg of cannabidiol in combination with regular medication

C=C(C)[C@@H]1CCC(C)=C[C@H]1c1c(O)cc(CCCCC)cc1O [cannabidiol]
seizure frequency (epileptic patients): no significant improvement in seizure frequency
frequency of seizures (single patient): markedly reduced the frequency of seizures
improvement versus placebo (patients): showed improvement over those that received a placebo
unwanted side effect (patients): Mild sedation
